Measured values published in PMC9699003, “Arene Variation of Highly Cytotoxic Tridentate Naphthoquinone-Based Ruthenium(II) Complexes and In-Depth In Vitro Studies” (Pharmaceutics, 2022).

How the values were obtained:
[1] = tested on: SW480 colon carcinoma cells; assay: MTT assay (cytotoxicity); assay type: cell-based, human
Procedure: (§1) CH1/PA-1 ovarian teratocarcinoma cells (provided by L. R. Kelland, CRC Centre for Cancer Therapeutics, Institute of Cancer Research, Sutton, UK; confirmed by STR profiling as PA-1 ovarian teratocarcinoma cells at Multiplexion, Heidelberg, Germany), SW480 colon carcinoma and A549 non-small cell lung cancer cells (both obtained from the American Type Culture Collection, Manassas, VA, USA) were grown as adherent cultures in 75 cm² culture flasks (CytoOne, Starlab, Hamburg, Germany) by using minimal essential medium (MEM) supplemented with 1 mM sodium pyruvate, 4 mM L-glutamine, 1% (v/v) nonessential amino acids from 100-fold stock (all purchased from Sigma-Aldrich) and 10% heat-inactivated fetal bovine serum (BioWest, Nuaillé, France). Cells were maintained under standard culture conditions with 5% CO2 at 37 °C in a humidified atmosphere.
(§2) The 3-(4,5-dimethylthiazol-2-yl)-2,5-diphenyl-2H-tetrazolium bromide (MTT, Acros Organics, Geel, Belgium) assay was used to detect the cytotoxicity of the compounds after 24 h and 96 h incubation. In brief, cells were harvested from culture flasks and the following cell numbers (each in 100 µL) were seeded into 96-well culture plates (CytoOne, tissue culture treated, Starlab, Hamburg, Germany) for 24 h incubation: 1 × 10^4 (CH1/PA-1), 1 × 10^4 (SW480) and 1.5 × 10^4 (A549) cells per well; and for 96 h incubation: 1 × 10^3 (CH1/PA-1), 2 × 10^3 (SW480) and 3 × 10^3 (A549) cells per well. After 24 h, cells resuming their exponential growth rate were treated with test compounds at nine concentrations obtained by serial two-fold dilution. Stock solutions were prepared in DMSO (20 mM or 40 mM) and diluted in supplemented MEM. An amount of 100 µL of each concentration was added to the plates in triplicates and cells were exposed for 24 or 96 h. Afterward, the medium was replaced with 100 µL of MTT solution (5 mg/mL) in phosphate-buffered saline (PBS, Sigma-Aldrich), diluted 1:7 in RPMI 1640 medium (supplemented with 4 mM L-glutamine and 10% heat-inactivated FBS). Upon cell-viability-dependent conversion of the yellow, water-soluble tetrazolium salt into purple formazan products for 4 h, the crystals were dissolved in 150 µL DMSO. The absorbance of the resulting solutions, which is directly proportional to the number of viable cells, was measured at 550 nm (and at 690 nm as a reference) with a microplate reader (ELx808, BioTek, Winoosky, VT, USA) and Gen5TM 3.08 software (BioTek). Blank-corrected optical densities were subjected to graphical evaluation and interpolation of IC50 values. At least three biologically and technically independent experiments were performed.

[2] = tested on: CH1/PA-1 ovarian teratocarcinoma cells; assay: MTT assay (cytotoxicity); assay type: cell-based, human; settings: CH1/PA-1, MTT
Procedure: as §1, §2

[3] = tested on: A549 non-small cell lung cancer cells; assay: MTT assay (cytotoxicity); assay type: cell-based, human
Procedure: as §1, §2

SW480 cells [4] = assay: Apoptosis assay (annexin V-FITC/PI, flow cytometry); settings: SW480, 24 h; for early apoptotic cells / late apoptotic cells / necrotic cells / viable cells: mean ± SD
Procedure: Cell death induction was quantitatively analyzed via flow cytometry using double staining with FITC-conjugated annexin V (eBioscience, San Diego, CA, USA) and propidium iodide (PI, 1.0 mg/mL, Sigma-Aldrich). SW480 cells were seeded into 24-well plates (7 × 10^4 cells/well) in 600 µL MEM per well and allowed to settle for 24 h. Afterward, cells were exposed to two or three different concentrations (0.1–100 µM) of the compounds (based on their cytotoxic activity) for 24 h. After treatment, the medium was collected, and cells were washed once with 37 °C warm PBS and harvested. Following trypsinization, the cell suspension was added to the pre-collected medium and cells were centrifuged (300 g, 3 min). The supernatant was removed, and the cell pellet was resuspended with 1.5 µL FITC-conjugated annexin V in 150 µL binding buffer (10 mM HEPES/NaOH pH 7.4, 140 mM NaCl and 2.5 mM CaCl2) and incubated at 37 °C for 15 min. An amount of 1 µL of propidium iodide (PI, Thermo Fisher) was added shortly before flow-cytometric analysis using a Guava easyCyte 8HT instrument (Merck Millipore, Burlington, MA, USA) with InCyte software. Results were quantified by using the FlowJo software (TreeStar). At least three independent experiments were conducted.

SW480 cells [5] = assay: Colony formation assay; assay type: cell-based, human; settings: SW480, 11 days, relative to untreated control
Procedure: For the colony formation assay, SW480 cells were seeded at a density of 350 cells/2 mL into each well of 6-well plates (CytoOne, tissue culture treated) and left to adhere for 24 h. To determine the long-term effects of the test compounds, the cells were exposed to them for 11 days at 37 °C and 5% CO2. After incubation, the wells were gently washed with 1 mL cold PBS and the colonies were fixed with 1 mL cold (4 °C) 100% methanol (Thermo Fisher, Waltham, MA, USA) for 30 min at 4 °C and washed with 1 mL PBS again. The fixed colonies were stained with 1 mL of 0.5% w/v crystal violet (Sigma-Aldrich) in methanol for 2 min and the plates were washed under tap water. After drying the plates, images of the wells were captured, and colonies were counted with the colony counting function of Fusion Fx7 software (Vilber Lourmat, Collégien, France). Results were normalized to untreated controls. Data are averaged from at least three independent experiments.

SW480 cells [6] = assay: Cellular ruthenium accumulation (ICP-MS); assay type: cell-based, human; settings: SW480, 2 h incubation, 37 °C
Procedure: SW480 cells were seeded at densities of 1.8 × 10^5 cells/well in 12-well plates (CytoOne, tissue culture treated) in 1 mL of supplemented MEM per well. (As CH1/PA-1 cells tend to detach during the required washing steps, cellular accumulation studies were performed only in SW480 cells). After 24 h, compounds dissolved in DMSO and diluted in MEM were added to the cells to final concentrations of 2 µM and 5 µM, and cells were incubated at 37 °C for 2 h. During incubation, the cell number was determined from three control wells of a plate seeded in parallel to the treatment plates. After the 2 h incubation, the medium was removed and all wells were washed with 3 × 1 mL PBS, and cells were lysed by adding 400 µL HNO3 per well for 1 h at room temperature. An amount of 300 µL of each lysate was added to 7.7 mL MilliQ water to get a total volume of 8 mL, and determination of the ruthenium content was carried out by ICP-MS. The measured amount of accumulated metal was normalized to the cell number and results were given in fg [Ru]/cell from at least three independent experiments. An Agilent 7800 ICP-MS instrument (Agilent Technologies, Tokyo, Japan) equipped with an Agilent SPS 4 autosampler (Agilent Technologies, Tokyo, Japan) was used to determine the ruthenium content. The ICP-MS parameters were tuned on a daily base to achieve high sensitivity. The ICP-MS was equipped with a MicroMist nebulizer with a sample uptake rate of ∼0.2 mL/min and standard nickel cones. The Agilent MassHunter software package (Workstation Software, Version C.01.04, 2018) was used for data evaluation. The instrumental parameters can be found in the supplementary information (Table S9).

`CC1=C([O-])C([O-])(n2cccn2)c2ccccc2C1=O.Cc1c(C)c(C)c(C)c(C)c1C.[Ru+2]` (stereo not drawn) [Compound 6] was tested, and the IC50 ([1]; 24 h exposure) was 2.8 ± 1.6 µM, the IC50 ([1]; 96 h exposure) was 0.27 ± 0.06 µM and the IC50 ([2]; 24 h exposure) was 57 ± 16 µM. It also gave an IC50 ([2]; 96 h exposure) of 35 ± 4 µM, an IC50 ([3]; 24 h exposure) of 38 ± 21 µM and an IC50 ([3]; 96 h exposure) of 3.4 ± 0.6 µM. For the same molecule, the early apoptotic cells (SW480 cells [4]; 0.1 µM) was 1.0 ± 0.7%, the late apoptotic cells (SW480 cells [4]; 0.1 µM) was 4.7 ± 2.8% and the necrotic cells (SW480 cells [4]; 0.1 µM) was 17 ± 27%. For the same molecule, the viable cells (SW480 cells [4]; 0.1 µM) was 77 ± 29%, the early apoptotic cells (SW480 cells [4]; 1 µM) was 1.1 ± 07% and the late apoptotic cells (SW480 cells [4]; 1 µM) was 2.0 ± 0.7%. The necrotic cells (SW480 cells [4]; 1 µM) was 1.0 ± 1.3%, the viable cells (SW480 cells [4]; 1 µM) was 96 ± 2% and the early apoptotic cells (SW480 cells [4]; 10 µM) was 1.1 ± 0.3%. It also gave a late apoptotic cells (SW480 cells [4]; 10 µM) of 3.7 ± 0.1%, a necrotic cells (SW480 cells [4]; 10 µM) of 0.94 ± 0.52% and a viable cells (SW480 cells [4]; 10 µM) of 94 ± 0%. The “Apoptosis / necrosis induction (in words)” value (SW480 cells [4]; concentrations covering the IC50 range) was “neither apoptotic nor necrotic cells exceeded the percentages in untreated controls”, the Number of colonies (SW480 cells [5]; 0.16 µM) was 28 ± 12% and the Number of colonies (SW480 cells [5]; 0.31 µM) was 9.2 ± 3.2%. For the same molecule, the Number of colonies (SW480 cells [5]; 0.63 µM) was 1.2 ± 1.1%, the “Ru [102]/cell (cellular accumulation)” value (SW480 cells [6]; 2 µM) was 100 ± 15 fg and the “Ru [102]/cell (cellular accumulation)” value (SW480 cells [6]; 5 µM) was 206 ± 32 fg.
